Series [1] relates to pentylenetetrazole-induced clonic seizures. Description: animal or person. The class given is in vivo, Kunming mice. As to conditions: for ED50 (scPTZ) / PI (TD50/ED50) scPTZ / ED50: 0.5 h; for ED50 (scPTZ): value (95% CI); for PI (TD50/ED50) scPTZ: Kunming, mouse, in vivo; for ED50 / minimal effective dose: Mus musculus, sc; for ED50: as given in the text, read-out: ED50 (scPTZ); for minimal effective dose: doses 30, 100, 300 mg/kg, read-out: scPTZ, dose at which at least one of three animals was protected. As to the method:
(§1) Pharmacological tests were performed using two experimental animal models, MES and scPTZ, which were divided into three dosage groups of 30, 100, and 300 mg/kg, and the anticonvulsant activity of the target compounds 6a–m and 9a–g, after 0.5 and 4 h of administration, respectively, were tested. Carbamazepine, which is effective in the MES model, was chosen as a positive control, and ethosuximide, which is effective in the scPTZ model, was chosen as a positive control. […]
The test compound wa s
Absence of clonic spasms indicated a […]

Series [2] concerns mice. As to conditions: Kunming, mouse, in vivo, 0.5 h.
Procedure: (§2) The neurotoxicity of the target compounds was tested using the ROT experimental model, which was divided into two dose groups, 100 and 300 mg/kg, and tested after 0.5 and 4 h of administration, respectively.
(§3) The neurotoxicity of the target compounds was determined using the ROT experimental model.
(§4) The neurotoxicity of the compounds wa s measured in mice using the rotarod test. Mice
(§5) we r e trained to stay on an accelerating rotarod (diameter, 3.2 cm) rotating at 10 rpm. Trained
(§6) animals we r e injected with the test compounds (i.p.) and neurotoxicity wa s measured as the
(§7) inability of the animal to maintain equilibrium on the rod for at least 1 min in each of the
For series [3], the system named is MES-induced seizures. The arrangement: method as in doi:10.1016/j.molstruc.2025.141611. As to conditions: cited from earlier work; for MES, dose at which at least one of three animals was protected: lead compound of previous study.
The subject of series [4] is mice. The arrangement: method as in doi:10.1016/j.molstruc.2025.141611. As to conditions: cited from earlier work; for NT (neurotoxicity, ROT): lead compound of previous study.
Series [5] has as its system pentylenetetrazole-induced clonic seizures. The arrangement: method as in doi:10.1016/j.molstruc.2025.141611. As to conditions: cited from earlier work; for scPTZ, dose at which at least one of three animals was protected: lead compound of previous study.
Series [6] can be described thus: Rotarod (ROT) neurotoxicity test. As to conditions: Kunming, mouse, in vivo, intraperitoneal. A general note: Falling from the rotarod earlier than controls is read as motor impairment.
Procedure: as §2, §3, §4, §5, §6, §7
Series [7] has as its system mice. Put plainly: Rotarod (ROT) neurotoxicity test. As to conditions: for NT (neurotoxicity, ROT), dose at which at least one of three animals showed neurotoxicity: doses 100, 300 mg/kg.
Procedure: as §2, §3, §4, §5, §6, §7
In series [8] the test system is MES-induced seizures. Put plainly: animal or person. As to conditions: for ED50 (MES) / PI (TD50/ED50) MES / ED50: 0.5 h; for ED50 (MES): value (95% CI); for PI (TD50/ED50) MES: Kunming, mouse, in vivo; for minimal effective dose / ED50: Mus musculus; for minimal effective dose: ip, doses 30, 100, 300 mg/kg, read-out: MES, dose at which at least one of three animals was protected; for ED50: as given in the text. The class given is in vivo, Kunming mice. As to the method:
as §1
Protection against the spread of
extension component of the seizure. […]

For series [9], the system named is GABA content in brain tissue. Put plainly: GABA estimation in brain tissue. As to conditions: 30 mg/kg, n = 5. The format is in vivo, Wistar rats.
Procedure: The data obtained from the experiments were analyzed and processed and plotted using GraphPad Prism 8 software.
We i g h about 0.05 g of tissue sample in a homogenizer, add 450 µL of extracting solution
to homogenize, homogenize, transfer to an EP tube, mark the liquid level scale, and heat for 2
hours at 95°C. After heating, centrifuge at 8000 × g for 10 min and remove the supernatant for
① Standard tube: Ta k e 30 µL of different concentrations of standards and add them to
the corresponding 1.5 mL EP tube. Measurement tube: Ta k e 30 µL of sample supernatant and
add it to 1.5 mL EP tube. ② Add 50 µL of buffer solution and 40 µL of Chromogenic Agent A
to each tube in step, mix we l l , and let stand at room temperature for 5 min. ③ Add 60 µL of
Chromogenic Agent B to each tube in step, mix we l l , and heat at 95°C for 10 min, then cool at
ice bath. ④ Add 200 µL of supplementary solution to each tube in step and mix well. ⑤ Ta k e
200 µL into the corresponding we l l s of the enzyme plate, and measure the OD va l u e of each
Series [10] relates to mice. Put plainly: Elevated plus maze (EPM) test. As to conditions: n = 6. The format is in vivo. From the text:
The EPM experiment is a method for evaluating whether experimental animals have an anxiety response. The principle is that, in the face of new things, mice will generate curiosity to explore (open arm), while they have a nature of darkness (closed arm), the conflict behavior between the two occurs between exploration and avoidance, resulting in anxiety. Anxious behavior can be evaluated by comparing the retention time of mice in the open and closed arms.
Flumazenil is a selective BZ antagonist with a chemical structure similar to that of BZs, which acts on central benzodiazepine (BZ) receptors and thus blocks the receptors without producing BZ-like effects.
The apparatus consisted of a black acrylic maze with two opposite open arms (50×10 cm) and two opposite closed arms (50×10×40 cm) disposed like a plus sign with a central square of 10 cm2. Entire maze wa s elevated 50 cm above the floor. The test consisted in placing the rat in the central square of the maze facing one closed arm and allowing it to explore during 5 min. This procedure wa s performed in a quiet and dimly illuminated room. The scores analysed we r e the time spent in open and closed arms, and the number of entries to both […]
widely used as an anxiety index (time spent in open arms relative to the time spent in open […]
and closed arms). […]

Entries after “also recorded” stand apart in the source; their conditions may differ. Read-outs that look alike come from different tables or passages of the source.

Regarding `CCC1(C)CC(=O)NC1=O` (centres unmarked) [Ethosuximide, reference compound], in series [1], the ED50 (scPTZ) is 94.4 mg/kg; the “PI (TD50/ED50) scPTZ” value is 3.5; the ED50 (usually the dose that gives a 50% effect, or the effect in half of the subjects) was 94.4 mg/kg. For the same compound, the “TD50 (ROT)” value with mice [2] is listed as 333.7 (362.8–306.9) mg.

Consider `CCCCCOc1cc(OCCCCC)n2ncnc2n1` [I], for which the “MES, dose at which at least one of three animals was protected” value with MES-induced seizures [3] (0.5 h) and in the series on MES-induced seizures [3] (4 h) was 30 mg/kg in each case. Also, the “ED50 (MES)” value with MES-induced seizures [3] (lead compound) is reported as 11.3 (12.3–10.4) mg. Also, the “PI (TD50/ED50) MES” value in the series on MES-induced seizures [3] (lead compound) was 16.8. The “NT (neurotoxicity, ROT)” value in the series with mice [4] (0.5 h) and in the series on mice [4] (4 h) was over 150 mg/kg in each case. Also, in the series on mice [4] (lead compound), the “TD50 (ROT)” value was 190.7 (207.3–175.4) mg. The “scPTZ, dose at which at least one of three animals was protected” value in [5] (0.5 h) and in series [5] (4 h) was 30 mg/kg throughout. In series [5] (lead compound), the “ED50 (scPTZ)” value is reported as 9.5 (10.4–8.8) mg. The “PI (TD50/ED50) scPTZ” value in [5] (lead compound) is recorded as 20.0.

For `O=C(Nc1ccc(-n2cncn2)cc1)c1cccc(F)c1` [Compound 6f, N-(4-(1H-1,2,4-triazol-1-yl)phenyl)-3-fluorobenzamide], the TD50 – broadly, the dose at which the toxic effect under study appears in half of the subjects – at 0.5 h in [6] turned out to be 477 mg/kg. Besides, the “TD50 (ROT)” value in the series on mice [7] (0.5 h, value (95% CI)) was 476.7 (518.3–438.5) mg. The “NT (neurotoxicity, ROT), dose at which at least one of three animals showed neurotoxicity” value with mice [7] (0.5 h after administration) and with mice [7] (4 h after administration) was over 300 mg/kg each time. This compound came in with an ED50 (MES) in the series with MES-induced seizures [8] of 13.1 mg/kg. In addition, in the series on MES-induced seizures [8], the “PI (TD50/ED50) MES” value turned out to be 36.3. Moreover, the minimal effective dose (in the series on MES-induced seizures [8] (0.5 h after administration); in the series on MES-induced seizures [8] (4 h after administration); in series [1] (0.5 h after administration); in series [1] (4 h after administration)) was 30 mg/kg in each case. Further, the ED50 was determined as 13.1 mg/kg with MES-induced seizures [8] and 19.7 mg/kg in [1]. The same compound showed an ED50 (scPTZ) in [1] of 19.7 mg/kg. For the same compound, the “PI (TD50/ED50) scPTZ” value in series [1] stood at 24.2. For the same compound, the entries for the “GABA content in brain tissue vs control” value in [9] (2 h after administration) and in series [9] (7 d continuous administration) were “do not show significant differences” and “showed significant differences”, respectively. Further, the “EPM % of time in open arms vs control” value in the series on mice [10] (3 mg/kg) is “showed a significant difference; also recorded: showed significant differences”; with mice [10] (6f 3 mg/kg + FMZ 5 mg/kg), “also showed significant differences”. The “EPM time in open arm vs 6f group” value with mice [10] (6f 3 mg/kg + FMZ 5 mg/kg) was “significantly shortened the time of experimental animals in open arm”.

Consider `NC(=O)N1c2ccccc2C=Cc2ccccc21` [Carbamazepine, reference compound], for which, in the series on MES-induced seizures [8], the ED50 (MES) turned out to be 11.4 mg/kg, the “PI (TD50/ED50) MES” value was 6.1 and the ED50 turned out to be 11.4 mg/kg. Also, the “TD50 (ROT)” value in the series with mice [2] is reported as 69.3 (75.4–63.8) mg.

These data come from PMC12388125, “Design, Synthesis, and Pharmacological Activity of the N-(4-(1H-1,2,4-Triazol-1-yl)phenyl)-substituted-amide Derivatives” (Molecules, 2025).
